Here are results for 16 compounds from patent publication US9321742B2, “N1-cyclic amine-N5-substituted biguanide derivatives, methods of preparing the same and pharmaceutical composition comprising the same” (IMMUNOMET THERAPEUTICS INC., priority 2011, dated 2016).

The inhibition is the drop in the measured response relative to a control, in per cent. As usually defined, the GI50 is the concentration giving 50% growth inhibition. As usually defined, the melting point is the temperature of the solid-liquid transition.

Where only a bound is given, the exact number is not on record here.

One data set deals with AMPKα. As to the kind of experiment: Measurement of AMPK-activation effect (AMPKα Thr172 phosphorylation immunoassay in MCF7 cells). The note with it: 24 hours; for AMPK activation effect 10 uM (%) / AMPK activation effect 50 uM (%): relative to untreated cells. It counts as cell-based, human. The procedure: MCF7 cells derived from human breast cancer cells (commercially available from the Korean Cell Line Bank) were used, and the AMPK (5′-AMP-activated protein kinase alpha)-activation effect of the biguanide derivative was confirmed using an AMPKα immunoassay kit (Invitrogen, Catalog No. KH00651).
MCF7 cells were cultured in a DMEM medium supplemented with 10% fetal bovine serum. Thereafter, the cultured MCF7 cells were put into a 6-well plate with approximately 5×10^5 cells per well and cultured in an incubator supplied with 5% CO2. Culture media were treated with the derivatives synthesized in the examples at contents of 5, 10 and 50 μM, and then cultured for 24 hours. Metformin hydrochloride was used as the control, and the culture media were treated with 0.05, 0.5, 1, 2, 5 and 10 mM metformin hydrochloride, and then tested in the same manner as described in the derivatives synthesized in the examples. Subsequently, the cells were lysed according to a method presented in the operation manual of the AMPKα immunoassay kit, and 20 μg of a cell lysate was then yielded through protein assay. Thereafter, the AMPK activation effect was obtained by determining the degree of phosphorylation of 172nd threonine residue (Thr172) of the AMPKα from the cell lysate according to the method presented in the operation manual of the AMPKα immunoassay kit. […] A curve graph showing AMPK activation according to the concentration of the treated compounds was plotted based on the obtained AMPKα activation results, the concentration (activation concentration 150, AC150) value of the compound whose AMPK activation reached 150% was calculated using a GraphPad Prism 5.0 program, and the degrees of AMPK activation were obtained when concentrations of the treated biguanide derivatives were 10 μM and 50 μM and the metformin hydrochloride was 50 μM.

In the next data set the test system is HCT116 cells. As to the kind of experiment: Measurement of effect of inhibiting cancer cell proliferation (MTT). In kind it is cell-based. The settings on record: Homo sapiens; for inhibition at 100 µM: HCT-116, 100 uM, read-out: Cell Growth Inhibition (%) at 100 uM; for GI50: HCT-116, 48 hours. From the text:
HCT116 cells derived from human colorectal cancer (commercially available from the Korean Cell Line Bank) were used, and the effect of inhibiting cancer cell proliferation of the biguanide derivative was confirmed by measuring the concentration value (cell growth inhibition concentration, GIC50) at which cell growth was inhibited by 50% using a 3-(4,5-dimethylthiazol-2-yl)-2,5-[…] bromide (MTT) reagent.
First, HCT116 cells were put on a 96-well plate and cultured in a DMEM medium containing 10% fetal bovine serum for 16 hours so that the cellcount in each well was approximately 5,000. Subsequently, to obtain the GIC50 value of each compound, culture media were treated with 100 μM, 25 μM, 6.25 μM, 1.56 μM or 0.39 μM of the compound, and then cultured for 48 hours. At this time, some of the compounds were treated with 200 μM instead of 100 μM. Metformin hydrochloride was used as the control, and the culture media were treated with 25, 12.5, 2.5, 0.5, 0.1 mM metformin hydrochloride, and then tested in the same manner as described in the derivatives synthesized in the examples. In order to determine whether the cells survived after treatment with the compound, MTT was added to the culture media which were then cultured for another 3 hours. Formed formazane crystals were dissolved using dimethyl sulfoxide (DMSO), and the absorbance of the resulting solution was measured at 560 nm. After the 48-hours culture, the ratio of the cell count cultured on a well plate not treated with the compound to the living cell count on a well plate treated with the compounds synthesized in the examples was indicated as cell viability (%) according to each treated concentration. A cell viability curve graph was plotted and the concentration (GIC50) value of the compound at which the growth was inhibited by 50% was calculated to confirm the effect of inhibition of cancer cell proliferation. Also, the cell growth viability (%) when the concentration of the treated biguanide derivative and the metformin hydrochloride as the control were 100 uM was shown.

`Cl.N=C(NCc1ccc(OC(F)(F)F)cc1)NC(=N)N1CCCCC1` [Example 42, N1-piperidine-N5-(4-trifluoromethoxy)benzyl biguanide hydrochloride] returned a melting point of 268 to 269 °C. In the data set with AMPKα, the “AMPK activation effect 10 uM (%)” value was 472%, the “AMPK activation effect 50 uM (%)” value came out at 554% and the “AC150 (concentration at which AMPK activation reached 150%)” value was found to be 0.8 µM. The inhibition at 100 µM in the data set with HCT116 cells (48 hours) came out at 96.8%. In the data set on HCT116 cells, this compound gave a GI50 of 16.2 µM.

As for `Cl.N=C(NCc1ccc(F)c(C(F)(F)F)c1)NC(=N)N1CCCCC1` [Example 44, N1-piperidine-N5-(4-fluoro-3-trifluoromethyl)benzyl biguanide hydrochloride], the melting point was in the range of 232 to 235 °C. Further, in the data set with AMPKα, the “AMPK activation effect 10 uM (%)” value came to 180%, the “AMPK activation effect 50 uM (%)” value was 383% and the “AC150 (concentration at which AMPK activation reached 150%)” value was 10.3 µM. The inhibition at 100 µM in the data set with HCT116 cells (48 hours) amounted to 32.6%. The compound further displayed a GI50 with HCT116 cells of 15.2 µM.

For `Cl.N=C(NCc1ccc(Cl)c(C(F)(F)F)c1)NC(=N)N1CCCCC1` [Example 45, N1-piperidine-N5-(4-chloro-3-trifluoromethyl)benzyl biguanide hydrochloride], the melting point lay in the range of 259 to 261 °C. In addition, in the data set with AMPKα, the “AMPK activation effect 10 uM (%)” value is 162%, the “AMPK activation effect 50 uM (%)” value was 232% and the “AC150 (concentration at which AMPK activation reached 150%)” value was found to be 1.7 µM. Further, the inhibition at 100 µM in the data set with HCT116 cells (48 hours) came to 96.9%. Besides, the GI50 with HCT116 cells came out at 8.2 µM.

In turn, `Cl.N=C(NCc1ccc(C(F)(F)F)c(F)c1)NC(=N)N1CCCCC1` [Example 46, N1-piperidine-N5-(3-fluoro-4-trifluoromethyl)benzyl biguanide hydrochloride] gave a melting point of 264 to 266 °C. Besides, in the data set with AMPKα, the “AMPK activation effect 10 uM (%)” value stood at 331%, the “AMPK activation effect 50 uM (%)” value turned out to be 389% and the “AC150 (concentration at which AMPK activation reached 150%)” value was 1.1 µM. In addition, the inhibition at 100 µM in the data set on HCT116 cells (48 hours) was 101%. Also, the GI50 in the data set with HCT116 cells amounted to 21.3 µM.

`Cl.N=C(NCc1ccc(C(F)(F)F)c(Cl)c1)NC(=N)N1CCCCC1` [Example 47, N1-piperidine-N5-(3-chloro-4-trifluoromethyl)benzyl biguanide hydrochloride] showed a melting point of 254 to 256 °C. In the data set on AMPKα, the “AMPK activation effect 10 uM (%)” value is listed as 433%, the “AMPK activation effect 50 uM (%)” value is reported as 384% and the “AC150 (concentration at which AMPK activation reached 150%)” value was determined as 4.4 µM. The inhibition at 100 µM in the data set with HCT116 cells (48 hours) came out at 100%. In the data set with HCT116 cells, this compound returned a GI50 of 7.4 µM.

Compound `Cl.N=C(NCc1ccc(F)c(OC(F)(F)F)c1)NC(=N)N1CCCCC1` [Example 48, N1-piperidine-N5-(4-fluoro-3-trifluoromethoxy)benzyl biguanide hydrochloride] showed a melting point of 233 to 235 °C. In addition, in the data set with AMPKα, the “AMPK activation effect 10 uM (%)” value is 244% and the “AC150 (concentration at which AMPK activation reached 150%)” value stood at 18.2 µM. Moreover, the inhibition at 100 µM in the data set with HCT116 cells (48 hours) is 96.4%. The same compound showed a GI50 in the data set with HCT116 cells of 13.4 µM.

`Cl.N=C(NCc1ccc(OC(F)(F)F)c(F)c1)NC(=N)N1CCCCC1` [Example 49, N1-piperidine-N5-(3-fluoro-4-trifluoromethoxy)benzyl biguanide hydrochloride]: the melting point was 266 to 268 °C. Besides, in the data set with AMPKα, the “AMPK activation effect 10 uM (%)” value was 158%, the “AMPK activation effect 50 uM (%)” value is recorded as 147% and the “AC150 (concentration at which AMPK activation reached 150%)” value stood at 0.8 µM. Further, the inhibition at 100 µM in the data set with HCT116 cells (48 hours) was found to be 97%. This compound returned a GI50 with HCT116 cells of 9.2 µM.

`Cl.N=C(NCc1ccc(OC(F)(F)F)c(Cl)c1)NC(=N)N1CCCCC1` [Example 50, N1-piperidine-N5-(3-chloro-4-trifluoromethoxy)benzyl biguanide hydrochloride] came in with a melting point of 240 to 241 °C. Moreover, in the data set on AMPKα, the “AMPK activation effect 10 uM (%)” value is given as 259% and the “AC150 (concentration at which AMPK activation reached 150%)” value is 8.8 µM. The inhibition at 100 µM with HCT116 cells (48 hours) worked out at 97%. This compound returned a GI50 in the data set with HCT116 cells of 5.7 µM.

As to `Cl.N=C(NCc1c(F)cccc1F)NC(=N)N1CCCCC1` [Example 51, N1-piperidine-N5-(2,6-difluoro)benzyl biguanide hydrochloride], the melting point was 229 to 232 °C. In the data set on AMPKα, the “AMPK activation effect 10 uM (%)” value was 179% and the “AC150 (concentration at which AMPK activation reached 150%)” value turned out to be 2.1 µM. Further, in the data set with HCT116 cells (48 hours), the inhibition at 100 µM worked out at 96.8%. Further, the GI50 in the data set with HCT116 cells is > 100 µM.

`Cl.N=C(NCc1ccc(F)c(F)c1)NC(=N)N1CCCCC1` [Example 52, N1-piperidine-N5-(3,4-difluoro)benzyl biguanide hydrochloride] yielded a melting point of 230 to 232 °C. Moreover, in the data set on AMPKα, the “AMPK activation effect 10 uM (%)” value is given as 327%, the “AMPK activation effect 50 uM (%)” value is reported as 703% and the “AC150 (concentration at which AMPK activation reached 150%)” value turned out to be 3.8 µM. The inhibition at 100 µM in the data set on HCT116 cells (48 hours) was 46.5%. Also, the GI50 with HCT116 cells was 76.4 µM.

Compound `Cl.N=C(NCc1ccc(Cl)cc1Cl)NC(=N)N1CCCCC1` [Example 53, N1-piperidine-N5-(2,4-dichloro)benzyl biguanide hydrochloride] returned a melting point of 240 to 241 °C. Further, in the data set with AMPKα, the “AMPK activation effect 10 uM (%)” value turned out to be 238%, the “AMPK activation effect 50 uM (%)” value stood at 831% and the “AC150 (concentration at which AMPK activation reached 150%)” value stood at 3.5 µM. The inhibition at 100 µM with HCT116 cells (48 hours) came to 63.7%. Besides, the GI50 in the data set on HCT116 cells worked out at 9.1 µM.

For `Cl.N=C(NCc1ccc(Cl)c(Cl)c1)NC(=N)N1CCCC1` [Example 54, N1-pyrrolidine-N5-(3,4-dichloro)benzyl biguanide hydrochloride], the melting point lay in the range of 219 to 221 °C. Also, in the data set on AMPKα, the “AMPK activation effect 10 uM (%)” value amounted to 315% and the “AC150 (concentration at which AMPK activation reached 150%)” value worked out at 0.8 µM. For the same compound, in the data set on HCT116 cells (48 hours), the inhibition at 100 µM is 98%. For the same compound, the GI50 in the data set with HCT116 cells amounted to 21.1 µM.

`Cl.N=C(NCc1ccc(Cl)c(Cl)c1)NC(=N)N1CCCCC1` [Example 55, N1-piperidine-N5-(3,4-dichloro)benzyl biguanide hydrochloride]: the melting point fell in the range of 242 to 244 °C. In addition, in the data set on AMPKα, the “AMPK activation effect 10 uM (%)” value came out at 443%, the “AMPK activation effect 50 uM (%)” value was 830% and the “AC150 (concentration at which AMPK activation reached 150%)” value worked out at 0.9 µM. Further, the inhibition at 100 µM in the data set on HCT116 cells (48 hours) is 97.7%. In addition, in the data set on HCT116 cells, the GI50 stood at 10.3 µM.

In turn, `Cl.N=C(NCCc1cccs1)NC(=N)N1CCCCC1` [Example 56, N1-piperidine-N5-(thiophene-2-yl)ethyl biguanide hydrochloride] came in with a melting point of 176 to 178 °C. Besides, in the data set with AMPKα, the “AMPK activation effect 10 uM (%)” value was 612% and the “AC150 (concentration at which AMPK activation reached 150%)” value was determined as 9.0 µM. For the same compound, in the data set on HCT116 cells (48 hours), the inhibition at 100 µM stood at 97.6%.

The compound `Cl.N=C(NCCc1ccccc1)NC(=N)N1CCCC1` [Example 57, N1-pyrrolidine-N5-(phenethyl)biguanide hydrochloride] showed a melting point of 213 to 215 °C. In the data set on AMPKα, the “AMPK activation effect 50 uM (%)” value worked out at 391% and the “AC150 (concentration at which AMPK activation reached 150%)” value worked out at 8.1 µM. Also, in the data set with HCT116 cells (HCT-116, 200 uM, 48 hours, read-out: Cell Growth Inhibition (%) at 200 uM), the inhibition at 200 µM was determined as 23.2%. The GI50 with HCT116 cells is > 200 µM.

Compound `Cl.N=C(NCCc1ccccc1)NC(=N)N1CCCCC1` [Example 58, N1-piperidine-N5-(phenethyl)biguanide hydrochloride] returned a melting point of 235 to 237 °C. In the data set with AMPKα, the “AMPK activation effect 10 uM (%)” value was found to be 167%, the “AMPK activation effect 50 uM (%)” value is 388% and the “AC150 (concentration at which AMPK activation reached 150%)” value amounted to 6.4 µM. In addition, in the data set with HCT116 cells (48 hours), the inhibition at 100 µM was determined as 32.3%. The GI50 in the data set with HCT116 cells stood at 43.2 µM.
